Source: patent US20230340012A1, “NATURAL AND SYNTHETIC COMPOUNDS FOR TREATING CANCER AND OTHER DISEASES” (PACIFIC ARROW LIMITED, priority 2009, published 2023)
Converted amounts (≈) assume the structure as drawn.

Experiments:
Format in all cases: cell-based, human
MCF-7 = assay: MTT assay, breast (MCF-7)
Method: (§1) Cells. HTB-9 (bladder), HeLa-S3 (cervix), DU145 (prostate), H460 (lung), MCF-7 (breast), K562 (leukemia), HCT116 (colon), HepG2 (liver), U2OS (bone), T98G (brain), SK-MEL-5 (Skin) and OVCAR 3, ES2 (ovary), Pancreas (Capan), Mouth (KB), Kidney(A498).
(§2) MTT Assay. The procedure for MTT assay followed the method described by Carmichael et al. (1987) with modifications. The cells were seeded into a 96-well plate at for 24 hours before drug-treatment. The cells were then exposed to the drugs for 48, 72, or 96 hours. After the drug-treatment, MTT (0.5 mg/mL) was added to cultures and incubated for an hour. The formazan (product of the reduction of tetrazolium by viable cells) formed and was dissolved with DMSO and the O.D. at 490 nm, and was measured by an ELISA reader. The MTT level of the cells before drug-treatment was also measured (T0). The % cell-growth (%G) is calculated as: %G = (TD-T0 / TC-T0) x 100(1), where TC or TD represents O.D. readings of control or drug-treated cells. When T0 > TD, then the cytotoxicity (LC) expressed as % of the control is calculated as: %LC = (TD-T0 / T0) × 100(2).

H460 = assay: MTT assay, lung (H460); conditions: for IC50 of lung (H460): MTT
Method: as §1, §2
Methods: • A. Cells • -- H460 cells are derived from a Human Lung large cell carcinoma. Cells were grown in RPMI 1640 medium supplemented with 10% FCS, antibiotics and glutamine. 5000 cells were seeded in a well (96-welled plate) for one day before drug-treatment • B. Drug treatment: • -- Drug: Tig-S (stored as a 1000x stock solution in DMSO) was used. • -- Drug concentration used: from 0.15 - 20 ug/ml. • -- Drug-treatment was carried out for 1, 2 and 4 days. For the 4 days incubation, cells were fed with fresh medium (with drug) on day 2. • C. At the end of the drug-treatment, cytotoxic test was performed with MTT assay. Results: • 1. Tig-S inhibits H460 cells’ growth with the IC50 of drug 3 ug/ml. • 2. […] cells growth inhibition was observed beyond drug 5 ug/ml. • 3. No dead cell was found at drug concentration in 20 ug/ml.

T98G = assay: MTT assay, brain (T98G)
Method: as §1, §2

A498 = assay: MTT assay, kidney (A498)
Method: as §1, §2

KB = assay: MTT assay, mouth (KB)
Method: as §1, §2

Capan = assay: MTT assay, pancreas (Capan)
Method: as §1, §2
• A. Cells: Capan cells are derived from Human pancreas carcinoma (pancreas). Cells were grown in RPMI 1640 medium supplemented with 10% FCS, antibiotics and glutamine. 10000 cells were seeded in a well (96-welled plate) for one day before drug-treatment • B. Drug treatment: • -- Drug: Tig-S (stored as a 1000x stock solution in DMSO) was used. • -- Drug concentration used: from 0.15 - 20 ug/ml. • -- Drug-treatment was carried out for 3 days. • C. At the end of the drug-treatment, cytotoxic test was performed with MTT assay. The percentage of drug-treated cells’ growth as compared to those of the no drug control is determined.

ES2 cells = assay: Inhibition of cell adhesion, ES2; conditions: for ES2 cells attached to flasks compared to no drug controls / unattached cells alive: 5 ug/ml; for ES2 cells attached to flasks compared to no drug controls: 5 hours; for unattached cells alive: trypan Blue exclusion; for unattached cells alive / cells attached to flasks: ES2 or Hey8A; for cells attached to flasks: 10 ug/ml
Method: Methods and Results. ES2 or Hey8A cells were plated in T25 flasks with medium containing 5 ug/ml of compounds selected from structure (2A) including E4A-Tig-R, E4A-Tig-V, E4A-Tig-S, E4A-Tig-N, E4A-Tig-Q, E4A-Tig-T. Cultures were incubated for 5 hours. Attached cells were removed from flasks by trypsinization and the numbers/amounts were counted. Compared to no drug controls, 80 ± 4% of ES2 cells and 60 ± 4% of Hey8A cells were found attached to flasks under this condition. At 5 ug/ml of above compounds, over 90% of unattached cells are alive as determined by the trypan Blue exclusion assay and by their ability to re-attach to flasks when plating in medium without tested compounds. However, with 10 ug/ml tested compounds, less than 40% of cells attached to flasks and many of them are dead cells.

| Compound | IC50 of breast (MCF-7) (MCF-7) [µg/mL] | IC50 of lung (H460) (H460) [µg/mL] | IC50 of brain (T98G) (T98G) [µg/mL] | IC50 of kidney (A498) (A498) [µg/mL] | IC50 of mouth (KB) (KB) [µg/mL] | IC50 of pancreas (Capan) (Capan) [µg/mL] | ES2 cells attached to flasks compared to no drug controls (ES2 cells) [%] | unattached cells alive (ES2 cells) | cells attached to flasks (ES2 cells) | IC50, lung H460 cells growth (H460; 4 days) [µg/mL] | IC50, H460 cells' growth (H460; Experiment 32, treatment 1, 2 and 4 days) [µg/mL] | dead cells, H460 (H460; at 20 ug/ml) | IC50, lung H460 cells growth (H460; one day) [µg/mL] | IC50, pancreas cancer (Capan) cells' growth (Capan; 3 days) |
| --- | --- | --- | --- | --- | --- | --- | --- | --- | --- | --- | --- | --- | --- | --- |
| 24,28-O-Tigloyl-3β,16α, 21β, 22a, 24β, 28-hexahydroxyolean-12-ene [Tig-R] | 4.5 | 4.8 | 8 | 3.5 | 3 | 2.4 | 80 ± 4 | over 90% | less than 40% | – | – | – | – | – |
| CC=C(C)C(=O)OCC1(C)C(O)CCC2(C)C1CCC1(C)C2CC=C2C3CC(C)(C)C(O)C(O)C3(CO)C(O)CC21C (stereo not shown) [Tig-N] | 13 | 13 | 19 | 11 | 9 | 8 | 80 ± 4 | over 90% | less than 40% | – | – | – | – | – |
| CC=C(C)C(=O)OCC1(C)C(O)CCC2(C)C1CCC1(C)C2CC=C2C3CC(C)(C)C(OC(=O)C(C)=CC)C(O)C3(CO)C(O)CC21C (stereo not shown) [Tig-S] | 6.3 | 5.6 | 9 | 4.8 | – | 2.9 | 80 ± 4 | over 90% | less than 40% | 3 (≈ 4.47 µM) | 3 (≈ 4.47 µM) | No dead cell | 3.4 (≈ 5.07 µM) | about 1 ug/ml |
| CC=C(C)C(=O)OCC1(C)C(O)CCC2(C)C1CCC1(C)C2CC=C2C3CC(C)(C)C(O)C(OC(=O)C(C)=CC)C3(COC(=O)C(C)=CC)C(O)CC21C (stereo not shown) [Tig-T] | 20 | 21 | 26 | 15 | 13 | 10 | 80 ± 4 | over 90% | less than 40% | – | – | – | – | – |
